Laboratory results from the supplement of paper PMC10307832.

Columns and labels:
Assay in all cases: relative viability (nuclei count vs DMSO), 5 days (fraction); higher = more cells survive
RU-SKI 43 + Decitabine = compound: CC[C@@H](C)CNCC(=O)N1CCC2=C([C@@H]1COC3=CC=CC(=C3)C)C=CS2 [RU-SKI 43] + Nc1ncn([C@H]2C[C@H](O)[C@@H](CO)O2)c(=O)n1 [Decitabine] (partner 2 µM)
Procedure, shortened: (§1)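 The day after seeding in 1536-well plates, lung cancer cell lines were treated by pin tool with a single drug, or with a fixed anchor-drug dose together with five library-drug doses (not always all listed) in √10 steps. After 5 days, a combined fix-and-stain solution (final 0.05% Triton X-100, 1% formaldehyde, 1 ug/ml Hoechst) was added. Nuclei counted on 4× images gave relative viability as treated counts over vehicle counts, reported as the median of duplicate plates.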

Irinotecan + Foretinib = compound: CCc1c2c(nc3ccc(OC(=O)N4CCC(N5CCCCC5)CC4)cc13)-c1cc3c(c(=O)n1C2)COC(=O)[C@]3(O)CC [Irinotecan] + COc1cc2c(Oc3ccc(NC(=O)C4(C(=O)Nc5ccc(F)cc5)CC4)cc3F)ccnc2cc1OCCCN1CCOCC1 [Foretinib] (partner 0.25 µM)
Procedure, shortened: as §1

Irinotecan + Bortezomib = compound: CCc1c2c(nc3ccc(OC(=O)N4CCC(N5CCCCC5)CC4)cc13)-c1cc3c(c(=O)n1C2)COC(=O)[C@]3(O)CC [Irinotecan] + CC(C)C[C@H](NC(=O)[C@H](Cc1ccccc1)NC(=O)c1cnccn1)B(O)O [Bortezomib] (partner 0.002 µM)
Procedure, shortened: as §1

Row | Cell Line | relative viability (RU-SKI 43 + Decitabine; first compound 0.1 µM) | relative viability (RU-SKI 43 + Decitabine; first compound 0.3162 µM) | relative viability (RU-SKI 43 + Decitabine; first compound 1 µM) | relative viability (RU-SKI 43 + Decitabine; first compound 3.162 µM) | relative viability (RU-SKI 43 + Decitabine; first compound 10 µM) | relative viability (Irinotecan + Foretinib; first compound 0.6325 µM) | relative viability (Irinotecan + Foretinib; first compound 2 µM) | relative viability (Irinotecan + Foretinib; first compound 6.325 µM) | relative viability (Irinotecan + Foretinib; first compound 20 µM) | relative viability (Irinotecan + Bortezomib; first compound 2 µM) | relative viability (Irinotecan + Bortezomib; first compound 6.325 µM) | relative viability (Irinotecan + Bortezomib; first compound 20 µM) | relative viability (Irinotecan + Bortezomib; first compound 0.6325 µM)
1 | A549 | 0.256 | 0.263 | 0.25 | 0.307 | 0.234 | 0.885 | 0.611 | 0.122 | 0.0515 |  |  |  | 
2 | NCI-H1648 | 0.452 | 0.535 | 0.466 | 0.554 | 0.444 |  |  |  |  |  |  |  | 
3 | NCI-H1623 |  |  |  |  |  | 0.621 | 0.64 | 0.299 | 0.279 |  |  |  | 
4 | NCI-H1651 | 0.624 | 0.593 | 0.7 | 0.593 | 0.589 | 0.593 | 0.59 | 0.295 | 0.205 | 0.849 | 0.553 | 0.227 | 
5 | NCI-H2405 | 0.704 | 0.778 | 0.681 | 0.808 | 0.688 |  | 0.897 | 0.394 | 0.307 | 0.931 | 0.662 | 0.299 | 0.573
6 | NCI-H727 |  | 0.805 | 0.882 | 0.834 | 0.972 | 0.65 | 0.501 | 0.477 | 0.379 | 0.57 | 0.463 | 0.464 | 0.358
7 | EMC-BAC-2 | 0.984 | 0.965 | 1.02 | 0.997 | 1.03 | 0.691 | 0.379 | 0.274 | 0.44 | 0.717 | 0.242 | 0.218 | 0.952
8 | ChaGo-K-1 | 0.543 | 0.559 | 0.518 | 0.551 | 0.501 | 0.65 | 0.367 | 0.255 | 0.248 | 1.05 | 0.46 | 0.379 | 
9 | LXF-289 | 0.373 | 0.357 | 0.384 | 0.41 | 0.388 | 1.05 | 0.615 | 0.167 | 0.2 | 0.987 | 0.263 | 0.205 | 0.896
10 | HCC-827 | 0.336 | 0.269 | 0.395 | 0.288 | 0.315 | 0.637 | 0.324 | 0.207 | 0.175 | 0.923 | 0.639 | 0.416 | 1.03
11 | HCC-44 | 0.98 | 0.911 | 0.922 | 0.977 | 0.953 |  |  |  |  | 0.752 | 0.229 | 0.351 | 0.74
12 | NCI-H2023 | 0.211 | 0.254 | 0.22 | 0.246 | 0.237 | 0.832 | 0.842 | 0.295 | 0.116 | 0.686 | 0.162 | 0.0682 | 0.435
13 | NCI-H1734 | 0.522 | 0.544 | 0.598 | 0.487 | 0.473 |  | 0.52 | 0.193 | 0.187 | 0.674 | 0.207 | 0.174 | 0.797
14 | PC-14 | 0.248 | 0.219 | 0.225 | 0.218 | 0.203 | 0.935 | 0.806 | 0.431 | 0.189 | 0.802 | 0.178 | 0.158 | 0.831
